Where “and” joins values, the source holds several entries; their conditions need not be identical. Identical values can stand only once.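 1) Cells in 96-well plates. 2) Compound, 48 h, 5 concentrations. 3) Linear interpolation between surrounding doses. 4) Unreached endpoint = highest concentration. GI50 is the concentration that inhibits growth by half. At the TGI there is no net growth.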
How the values were obtained:
Experiment in all cases: DTP human tumour cell line panel, 48 h
[1] = tested on: SW-620 colon
[2] = tested on: M14 melanoma
[3] = tested on: HOP-62 NSCLC
[4] = tested on: PC-3 prostate
[5] = tested on: UO-31 renal
[6] = tested on: OVCAR-4 ovarian
[7] = tested on: HCT-116 colon
[8] = tested on: SF-295 CNS
[9] = tested on: SN12C renal
[10] = tested on: SNB-75 CNS

Row | Structure (SMILES) | TGI [1] | TGI [2] | TGI [3] | TGI [4] | TGI [5] | TGI [6] | TGI [7] | TGI [8] | TGI [9] | TGI [10] | GI50 [6] | GI50 [8]
1 | CC1(C)CC2C(C1=O)C1(C)CCCC2(C)C1=O (stereo not given) | > 100 µM | > 100 µM | > 100 µM | > 100 µM | > 100 µM | > 100 µM | > 100 µM | > 100 µM | > 100 µM | > 100 µM | – | –
2 | Cc1cc(C)c(N=Nc2c(O)c(S(=O)(=O)O)cc3cc(S(=O)(=O)O)ccc23)cc1C | > 100 µM | > 100 µM | > 100 µM | > 100 µM | > 100 µM | > 100 µM | > 100 µM | > 100 µM | > 100 µM | > 100 µM | – | –
3 | CCCCCCCCCCCCCCCCP(=O)([O-])OCC[N+](C)(C)C | 29.7 µM | 28.9 µM | 31 µM | 8.66 µM | 28.2 µM | 34.7 µM | 28 µM | 25.8 µM | 26.2 µM | 29 µM | – | –
4 | CC(=O)O[C@H]1CC[C@H]2[C@@H]3CCC(C(C)=O)[C@H](C(=O)O)[C@H]3CC[C@]12C (stereo not given in full) | > 100 µM | > 100 µM | > 100 µM | > 100 µM | > 100 µM | > 100 µM | – | > 100 µM | – | – | – | –
5 | COc1cc2c(cc1OCCCCCOc1cc3c(cc1OC)C(=O)N1CCC[C@H]1CN3)N=C[C@@H]1CCCN1C2=O | 23.9 µM | 10.8 µM | 31.5 µM | 61.5 µM | 30.9 µM | > 100 µM | 24.1 µM | 34 µM | 18.7 µM | 95.2 µM | – | –
6 | COc1ccccc1N=C1SCCN1C(=S)Nc1ccc(S(=O)(=O)/N=C/N(C)C)cc1 | > 100 µM | > 100 µM | > 100 µM | > 100 µM | > 100 µM | > 100 µM | > 100 µM | > 100 µM | > 100 µM | 98.4 µM | – | –
7 | CSC1=C(C(=O)Nc2ccccc2)C(N)=NC1=O | > 100 µM | – | – | > 100 µM | > 100 µM | > 100 µM | > 100 µM | – | > 100 µM | > 100 µM | – | –
8 | NC(N)=NCC(N)C(=O)O (stereo not given) | > 100 µM | > 100 µM | > 100 µM | > 100 µM | > 100 µM | > 100 µM | > 100 µM | > 100 µM | > 100 µM | > 100 µM | – | –
9 | OCC(O)C(O)C(O)C(O)/C=N/Nc1nc(O)c(/C=C2\C=Nc3ccccc32)[nH]1 (stereo not given) | > 100 µM | > 100 µM | > 100 µM | 97.5 µM | – | > 100 µM | > 100 µM | > 100 µM | > 100 µM | > 100 µM | – | –
10 | CC1(C)C2CCC(N)(C2)C1O (stereo not given) | > 100 µM | > 100 µM | > 100 µM | > 100 µM | > 100 µM | > 100 µM | > 100 µM | > 100 µM | > 100 µM | > 100 µM | – | –
11 | COP(C)(=O)C(Cc1c[nH]c2ccccc12)NC(=O)OCc1ccccc1 (stereo not given) | > 100 µM | > 100 µM | > 100 µM | > 100 µM | > 100 µM | > 100 µM | > 100 µM | > 100 µM | > 100 µM | – | – | –
12 | CC1(C)c2ccccc2C(O)C12CCC(=O)CC2 (stereo not given) | > 100 µM | > 100 µM | > 100 µM | > 100 µM | > 100 µM | > 100 µM | 23.2 µM | > 100 µM | > 100 µM | – | – | –
13 | CCN(CC)CCC(=O)c1ccc(Oc2ccc(F)cc2)cc1 | 32.7 µM | 34.9 µM | 56.6 µM | 71.9 µM | – | > 100 µM | 30.3 µM | > 100 µM | 32.1 µM | 47.8 µM | – | –
14 | Cc1cc(O)c(C(C)C)cc1N=Cc1ccccc1O | > 20.4 µM | 31.4 µM | 26.1 µM | 22.4 µM | 33.7 µM | 9.66 µM | 13.5 µM | 26.6 µM | 12.2 µM | – | – | –
15 | C#CCOC(=O)C(N)CCSC (stereo not given) | > 100 µM | > 100 µM | > 100 µM | > 100 µM | > 100 µM | – | > 100 µM | > 100 µM | > 100 µM | > 100 µM | – | –
16 | COc1cc2c(c(OC)c1OC)-c1ccc(SC)cc1C(=O)CC2 | > 100 µM | > 100 µM | – | > 100 µM | – | > 100 µM | – | > 100 µM | > 100 µM | > 100 µM | – | –
17 | CCCCCCCCCCSCC(CO)NC(=O)/C=C/c1c(C)[nH]c(=O)[nH]c1=O (stereo not given) | > 50 µM | – | > 31.1 µM and 31.2 µM | – | > 50 µM | 4.01 µM | > 50 µM | > 50 µM | 17.7 µM and > 32.8 µM | 12.9 µM and 18.1 µM | 0.912 µM and 0.192 µM | 14.6 µM
18 | Cc1ccc2c(=O)c(-c3n[nH]c(=S)s3)c[nH]c2n1 | > 100 µM | > 100 µM | > 100 µM | > 100 µM | > 100 µM | > 100 µM | > 100 µM | > 100 µM | > 100 µM | – | – | –
19 | NCCCC[C@H](N)C(=O)Nc1ccc(-c2nc3ccccc3s2)cc1Cl | 23.6 µM | 13.8 µM | 31.7 µM | 31.2 µM | 18.3 µM | – | 1.93 µM | 10.2 µM | 27.7 µM | 26.8 µM | – | –
20 | CN(C)c1ccc(/C=c2/c3cc([N+](=O)[O-])ccc3n3c2cc(-c2ccccc2)[n+]3C)cc1 | 2.75 µM | 2.66 µM | 10.1 µM | 7.27 µM | 23 µM | 8.33 µM | 5.84 µM | 7.51 µM | – | 3.79 µM | – | –
21 | CN1B(c2ccccc2)N(C)C(=O)N(C)C1=O | > 100 µM | > 100 µM | – | > 100 µM | > 100 µM | – | > 100 µM | > 100 µM | > 100 µM | > 100 µM | – | –
22 | CN(CCO)/N=N/c1[nH]ncc1C(N)=O | > 100 µM | – | – | – | > 100 µM | > 100 µM | > 100 µM | > 100 µM | > 100 µM | > 100 µM | – | –
23 | OC(CN1CCCCC1)c1ccc(/C=C/c2ccc(Cl)cc2)cc1 (stereo not given) | > 100 µM | 41.9 µM | > 100 µM | > 100 µM | > 100 µM | > 100 µM | > 100 µM | > 100 µM | > 100 µM | – | – | –
24 | CC(C)c1cccc(C(C)C)c1OS(=O)(=O)NC(=O)OC(C(F)(F)F)C(F)(F)F | > 100 µM | 64 µM | 91.3 µM | > 100 µM | > 100 µM | > 100 µM | > 100 µM | 65.3 µM | > 100 µM | – | – | –
